The source of these data is ChEMBL document CHEMBL1926618, “Homosecoiridoids from the flower buds of Lonicera japonica” (2011).

One assay concerns A549. The assay can be described thus: Cytotoxicity against human A549 cells at 10 uM after 96 hrs by MTT assay. It counts as functional, cell-based.
A further assay relates to PC-12. Description: Neuroprotective activity against glutamate-induced neurotoxicity in rat PC12 cells at 10 uM preincubated for 24 hrs prior challenge measured after 24 hrs by MTT assay. It counts as functional, cell-based. A general note: Tetrazolium assays rely on reduction of a dye to a coloured formazan, in cell work by metabolically active cells.
Assay [1] deals with Human immunodeficiency virus 1. The assay can be described thus: Antiviral activity against HIV1 infected in 293T cells at 10 uM pretreated for 15 mins prior infection measured after 48 hrs by luciferase reporter gene assay. It counts as functional, organism-based. Background: A reporter such as luciferase makes a cellular process visible.
Another assay deals with Liver microsomes. The assay can be described thus: Antioxidant activity against Fe2+-cystine induced lipid peroxidation in rat liver microsomes at 10 uM. As to conditions: Microsome. In kind it is functional. For orientation: Liver microsomes are a subcellular fraction often used to study metabolism.
The next assay has as its system MCF7. Description: Cytotoxicity against human MCF7 cells at 10 uM after 96 hrs by MTT assay. In kind it is functional, cell-based.
Assay [2] is described as follows: Antiinflammatory activity in rat polymorphonuclear leukocytes assessed as inhibition of platelet-activating factor-induced glucuronidase release at 10 uM preincubated for 15 mins before challenge by spectrophotometry. It counts as functional.
The test system of another assay is HCT-8. The assay can be described thus: Cytotoxicity against human HCT8 cells at 10 uM after 96 hrs by MTT assay. In kind it is functional, cell-based.
In the next assay the test system is BGC-823. The assay can be described thus: Cytotoxicity against human BGC823 cells at 10 uM after 96 hrs by MTT assay. In kind it is functional, cell-based.
In the next assay the test system is Bel-7402. Description: Cytotoxicity against human Bel7402 cells at 10 uM after 96 hrs by MTT assay. In kind it is functional, cell-based.
In assay [3] the target is T1, Tyrosine-protein phosphatase non-receptor type 1 (Homo sapiens) (UniProt P18031).
T1 sequence (whole entry): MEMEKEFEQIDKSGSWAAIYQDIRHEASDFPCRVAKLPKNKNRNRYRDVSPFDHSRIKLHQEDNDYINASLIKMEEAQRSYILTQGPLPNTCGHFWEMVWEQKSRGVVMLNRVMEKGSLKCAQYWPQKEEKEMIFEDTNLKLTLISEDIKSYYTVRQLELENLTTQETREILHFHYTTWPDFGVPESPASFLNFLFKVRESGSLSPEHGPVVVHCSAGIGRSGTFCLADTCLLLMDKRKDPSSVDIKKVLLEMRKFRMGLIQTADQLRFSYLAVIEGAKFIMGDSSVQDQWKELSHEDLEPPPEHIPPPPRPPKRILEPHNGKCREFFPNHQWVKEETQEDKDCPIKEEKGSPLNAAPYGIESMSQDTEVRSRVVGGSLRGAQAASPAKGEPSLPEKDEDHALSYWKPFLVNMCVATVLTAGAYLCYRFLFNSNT
The assay can be described thus: Inhibition of GST-tagged human PTP1B PTPase activity using p-NPP as substrate at 10 uM after 10 mins by spectrophotometry.

In another assay the test system is KETR3. Description: Cytotoxicity against human Ketr3 cells at 10 uM after 96 hrs by MTT assay. It counts as functional, cell-based.

Calls of active or inactive are those of the source. No cut-off for these calls is given here.

Broadly, the inhibition is the change of the read-out against control, counted positive when it falls. For the compound `C=C[C@H]1[C@H](O[C@@H]2O[C@H](CO)[C@@H](O)[C@H](O)[C@H]2O)OC=C(C(=O)O)[C@H]1/C=C/c1cc(C(=O)[O-])c[n+](CCCC(=O)O)c1` [DEMETHYL LONIJAPOSIDE A], the result (in the assay with A549; in the assay with PC-12; in assay [1]; in the assay with Liver microsomes; with MCF7; in the assay with HCT-8) was inactive. Moreover, the result with BGC-823, in the assay on Bel-7402 and with KETR3 was inactive. For the same compound, the inhibition at 10 µM in [2] is below 30%. Also, the inhibition entry in assay [3] is “inactive”.

Consider `C[C@@H]1C(=O)O[C@H]2[C@H](O)[C@@]34[C@H]5C[C@@H](C(C)(C)C)[C@]36[C@@H](OC(=O)[C@@H]6O)O[C@@]4(C(=O)O5)[C@@]12O` [GINKOLIDE B], for which the inhibition at 10 µM in [2] came out at 84.3%.

Regarding `C=C[C@H]1[C@H](O[C@@H]2O[C@H](CO)[C@@H](O)[C@H](O)[C@H]2O)OC=C(C(=O)OC)[C@H]1/C=C/c1cc(C(=O)[O-])c[n+](CC)c1` [LONIJAPOSIDE E], the outcome (with A549; with PC-12; in assay [1]; in the assay on Liver microsomes; in the assay with MCF7; in the assay on HCT-8) was inactive. For the same compound, the outcome in the assay on BGC-823, in the assay on Bel-7402 and in the assay with KETR3 was inactive. Further, in [2], the inhibition at 10 µM was below 30%. Further, the inhibition result in assay [3] was “inactive”.

`C=C[C@H]1[C@H](O[C@@H]2O[C@H](CO)[C@@H](O)[C@H](O)[C@H]2O)OC=C(C(=O)O)[C@H]1/C=C/c1cc(C(=O)[O-])c[n+](CC)c1` [LONIJAPOSIDE F]: the outcome (in the assay with A549; in the assay on PC-12; in assay [1]; in the assay with Liver microsomes; in the assay on MCF7; in the assay on HCT-8) was inactive. Besides, the result in the assay on BGC-823, with Bel-7402 and in the assay with KETR3 was inactive. In addition, the inhibition at 10 µM in assay [2] is 87.6%. Moreover, the inhibition entry in assay [3] is “inactive”.

Take `C=C[C@H]1[C@H](O[C@@H]2O[C@H](CO)[C@@H](O)[C@H](O)[C@H]2O)OC=C(C(=O)OC)[C@H]1/C=C/c1cc(C(=O)[O-])c[n+](C)c1` [LONIJAPOSIDE G]: the outcome (with A549; in the assay on PC-12; in assay [1]; in the assay on Liver microsomes; in the assay with MCF7; in the assay on HCT-8) was inactive. Moreover, the outcome in the assay with BGC-823, with Bel-7402 and with KETR3 was inactive. The inhibition at 10 µM in assay [2] was below 30%. Also, the inhibition entry in assay [3] was “inactive”.

Turning to `C=C[C@@H]1/C(=C\Cc2cc(C(=O)[O-])c[n+](CCCC(=O)O)c2)C(C(=O)OC)=CO[C@H]1O[C@@H]1O[C@H](CO)[C@@H](O)[C@H](O)[C@H]1O` [LONIJAPOSIDE H], the result (in the assay on A549; in the assay on PC-12; in [1]; in the assay on Liver microsomes; with MCF7; in the assay with HCT-8) was inactive. Further, the result in the assay with BGC-823, with Bel-7402 and in the assay with KETR3 was inactive. Moreover, the inhibition at 10 µM in assay [2] turned out to be 68.6%. In addition, the inhibition entry in assay [3] was “inactive”.

As to `C=C[C@H]1[C@H](O[C@@H]2O[C@H](CO)[C@@H](O)[C@H](O)[C@H]2O)OC=C(C(=O)[O-])[C@H]1/C=C/c1ccc[n+](CCO)c1` [LONIJAPOSIDE I], the outcome (with A549; in the assay with PC-12; in assay [1]; in the assay on Liver microsomes; in the assay on MCF7; in the assay with HCT-8) was inactive. The outcome in the assay with BGC-823, in the assay with Bel-7402 and in the assay with KETR3 was inactive. Moreover, the inhibition at 10 µM in assay [2] stood at 72.1%. Besides, the inhibition result in [3] was “inactive”.

`C=C[C@H]1[C@H](O[C@@H]2O[C@H](CO)[C@@H](O)[C@H](O)[C@H]2O)OC=C(C(=O)OC)[C@H]1/C=C/c1ccc[n+](CCO)c1` [LONIJAPOSIDE J]: the result (in the assay on A549; in the assay with PC-12; in [1]; in the assay on Liver microsomes; in the assay on MCF7; with HCT-8) was inactive. The outcome with BGC-823, in the assay on Bel-7402 and with KETR3 was inactive. The inhibition at 10 µM in assay [2] is below 30%. For the same compound, in assay [3], the inhibition result was “inactive”.

Take `C=C[C@H]1[C@H](O[C@@H]2O[C@H](CO)[C@@H](O)[C@H](O)[C@H]2O)OC=C(C(=O)[O-])[C@H]1/C=C/c1ccc[n+](CC(=O)O)c1` [LONIJAPOSIDE K]: the result (in the assay with A549; in the assay with PC-12; in assay [1]; in the assay with Liver microsomes; in the assay on MCF7; in the assay with HCT-8) was inactive. Further, the result in the assay on BGC-823, in the assay with Bel-7402 and in the assay on KETR3 was inactive. In addition, the inhibition at 10 µM in [2] amounted to 54.6%. Moreover, the inhibition entry in assay [3] was “inactive”.

As for `C=C[C@H]1[C@H](O[C@@H]2O[C@H](CO)[C@@H](O)[C@H](O)[C@H]2O)OC=C(C(=O)[O-])[C@H]1/C=C/c1ccc[n+](CCC(=O)O)c1` [LONIJAPOSIDE L], the outcome (with A549; with PC-12; in assay [1]; with Liver microsomes; in the assay on MCF7; with HCT-8) was inactive. The outcome with BGC-823, in the assay with Bel-7402 and with KETR3 was inactive. Moreover, the inhibition at 10 µM in assay [2] is below 30%. Also, the inhibition entry in [3] is “inactive”.

Take `C=C[C@H]1[C@H](O[C@@H]2O[C@H](CO)[C@@H](O)[C@H](O)[C@H]2O)OC=C(C(=O)[O-])[C@H]1/C=C/c1ccc[n+](CCCC(=O)O)c1` [LONIJAPOSIDE M]: the outcome (in the assay with A549; with PC-12; in assay [1]; in the assay with Liver microsomes; with MCF7; in the assay with HCT-8) was inactive. For the same compound, the outcome in the assay with BGC-823, in the assay with Bel-7402 and in the assay with KETR3 was inactive. In addition, the inhibition at 10 µM in [2] was below 30%. Besides, the inhibition entry in assay [3] was “inactive”.

`C=C[C@H]1[C@H](O[C@@H]2O[C@H](CO)[C@@H](O)[C@H](O)[C@H]2O)OC=C(C(=O)OC)[C@H]1/C=C/c1ccc[n+](CCCC(=O)[O-])c1` [LONIJAPOSIDE N]: the result (in the assay on A549; in the assay with PC-12; in assay [1]; in the assay with Liver microsomes; with MCF7; in the assay on HCT-8) was inactive. For the same compound, the outcome in the assay with BGC-823, in the assay with Bel-7402 and in the assay with KETR3 was inactive. Also, the inhibition at 10 µM in [2] is below 30%. Besides, in [3], the inhibition entry was “inactive”.
